# Measurements reported in ChEMBL document CHEMBL1201862, “PubChem BioAssay data set” (2004).
#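 A five-concentration, 48-hour dose response in 96-well plates underlies each endpoint, interpolated linearly between surrounding concentrations. The concentration for 50% growth inhibition is given as GI50.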 Active and inactive are the calls of the source. Rule as the data show it: active = GI50 up to about 1.1 µM and inactive = higher.
# Key:
# Test in all cases: DTP human tumour cell line panel, 48 h
# 786-0 = system: 786-0
# A498 = system: A498
# A549 = system: A549
# ACHN = system: ACHN
# CAKI-1 = system: CAKI-1
# CCRF-CEM = system: CCRF-CEM
# COLO 205 = system: COLO 205
# DMS-273 = system: DMS-273
# EKVX = system: EKVX
# HCT-116 = system: HCT-116
# HCT-15 = system: HCT-15
# HL-60 = system: HL-60
# HOP-62 = system: HOP-62
# HOP-92 = system: HOP-92
# HT-29 = system: HT-29
# IGROV-1 = system: IGROV-1
# K562 = system: K562
# KM-20L2 = system: KM-20L2
# KM12 = system: KM12
# LOX IMVI = system: LOX IMVI
# LXFL 529 = system: LXFL 529
# M14 = system: M14
# M19-MEL = system: M19-MEL
# MOLT-4 = system: MOLT-4
# NCI-H226 = system: NCI-H226
# NCI-H23 = system: NCI-H23
# NCI-H460 = system: NCI-H460
# NCI-H522 = system: NCI-H522
# OVCAR-3 = system: OVCAR-3
# OVCAR-4 = system: OVCAR-4
# OVCAR-5 = system: OVCAR-5
# OVCAR-8 = system: OVCAR-8
# RPMI-8226 = system: RPMI-8226
# RXF 393 = system: RXF 393
# RXF 631 = system: RXF 631
# SF-268 = system: SF-268
# SF-295 = system: SF-295
# SF-539 = system: SF-539
# SK-MEL-28 = system: SK-MEL-28
# SK-MEL-2 = system: SK-MEL-2
# SK-MEL-5 = system: SK-MEL-5
# SK-OV-3 = system: SK-OV-3
# SN12C = system: SN12C
# SNB-19 = system: SNB-19
# SNB-75 = system: SNB-75
# SNB-78 = system: SNB-78
# SR = system: SR
# SW-620 = system: SW-620
# TK-10 = system: TK-10
# U-251 = system: U-251
# UACC-257 = system: UACC-257
# UACC-62 = system: UACC-62
# UO-31 = system: UO-31
# XF498 = system: XF498
# DLD-1 = system: DLD-1
# DMS-114 = system: DMS-114
# HCC 2998 = system: HCC 2998
# Malme-3M = system: Malme-3M
# HOP-18 = system: HOP-18
smiles,measurement,setting,value
CC(C)=NNC(=S)NC12CC3CC(CC(C3)C1)C2,GI50,786-0,> 100 µM (inactive)
same,GI50,A498,> 100 µM (inactive)
same,GI50,A549,> 100 µM (inactive)
same,GI50,ACHN,> 100 µM (inactive)
same,GI50,CAKI-1,> 100 µM (inactive)
same,GI50,CCRF-CEM,> 100 µM (inactive)
same,GI50,COLO 205,> 100 µM (inactive)
same,GI50,DMS-273,> 100 µM (inactive)
same,GI50,EKVX,> 100 µM (inactive)
same,GI50,HCT-116,> 100 µM (inactive)
same,GI50,HCT-15,> 100 µM
same,GI50,HL-60,> 100 µM (inactive)
same,GI50,HOP-62,> 100 µM (inactive)
same,GI50,HOP-92,> 100 µM (inactive)
same,GI50,HT-29,> 100 µM (inactive)
same,GI50,IGROV-1,> 100 µM (inactive)
same,GI50,K562,> 100 µM (inactive)
same,GI50,KM-20L2,> 100 µM (inactive)
same,GI50,KM12,> 100 µM (inactive)
same,GI50,LOX IMVI,> 100 µM (inactive)
same,GI50,LXFL 529,> 100 µM (inactive)
same,GI50,M14,> 100 µM (inactive)
same,GI50,M19-MEL,> 100 µM (inactive)
same,GI50,MOLT-4,> 100 µM (inactive)
same,GI50,NCI-H226,> 100 µM (inactive)
same,GI50,NCI-H23,> 100 µM (inactive)
same,GI50,NCI-H460,> 100 µM (inactive)
same,GI50,NCI-H522,> 100 µM (inactive)
same,GI50,OVCAR-3,> 100 µM (inactive)
same,GI50,OVCAR-4,> 100 µM (inactive)
same,GI50,OVCAR-5,> 100 µM (inactive)
same,GI50,OVCAR-8,> 100 µM (inactive)
same,GI50,RPMI-8226,> 100 µM (inactive)
same,GI50,RXF 393,> 100 µM (inactive)
same,GI50,RXF 631,> 100 µM (inactive)
same,GI50,SF-268,> 100 µM (inactive)
same,GI50,SF-295,> 100 µM (inactive)
same,GI50,SF-539,> 100 µM (inactive)
same,GI50,SK-MEL-28,> 100 µM (inactive)
same,GI50,SK-MEL-2,> 100 µM (inactive)
same,GI50,SK-MEL-5,> 100 µM (inactive)
same,GI50,SK-OV-3,> 100 µM (inactive)
same,GI50,SN12C,> 100 µM (inactive)
same,GI50,SNB-19,> 100 µM (inactive)
same,GI50,SNB-75,> 100 µM (inactive)
same,GI50,SNB-78,> 100 µM (inactive)
same,GI50,SR,> 100 µM (inactive)
same,GI50,SW-620,> 100 µM (inactive)
same,GI50,TK-10,> 100 µM (inactive)
same,GI50,U-251,> 100 µM (inactive)
same,GI50,UACC-257,> 100 µM (inactive)
same,GI50,UACC-62,> 100 µM (inactive)
same,GI50,UO-31,> 100 µM (inactive)
same,GI50,XF498,> 100 µM (inactive)
O=C(O)c1ccc([C@@H]2C(=O)N(O)[C@@H]3C=CC[C@@H]32)cc1,GI50,786-0,> 100 µM (inactive)
same,GI50,A549,> 100 µM (inactive)
same,GI50,CAKI-1,> 100 µM (inactive)
same,GI50,CCRF-CEM,> 100 µM (inactive)
same,GI50,COLO 205,> 100 µM (inactive)
same,GI50,DLD-1,> 100 µM (inactive)
same,GI50,DMS-114,> 100 µM (inactive)
same,GI50,DMS-273,> 100 µM (inactive)
same,GI50,EKVX,> 100 µM (inactive)
same,GI50,HCC 2998,> 100 µM (inactive)
same,GI50,HCT-15,> 100 µM
same,GI50,HL-60,> 100 µM (inactive)
same,GI50,HOP-62,> 100 µM (inactive)
same,GI50,HT-29,> 100 µM (inactive)
same,GI50,IGROV-1,> 100 µM (inactive)
same,GI50,K562,> 100 µM (inactive)
same,GI50,KM12,> 100 µM (inactive)
same,GI50,LOX IMVI,> 100 µM (inactive)
same,GI50,LXFL 529,> 100 µM (inactive)
same,GI50,M14,> 100 µM (inactive)
same,GI50,M19-MEL,> 100 µM (inactive)
same,GI50,MOLT-4,> 100 µM (inactive)
same,GI50,Malme-3M,> 100 µM (inactive)
same,GI50,NCI-H226,> 100 µM (inactive)
same,GI50,NCI-H23,> 100 µM (inactive)
same,GI50,NCI-H522,> 100 µM (inactive)
same,GI50,OVCAR-3,> 100 µM (inactive)
same,GI50,OVCAR-8,> 100 µM (inactive)
same,GI50,RPMI-8226,> 100 µM (inactive)
same,GI50,RXF 393,> 100 µM (inactive)
same,GI50,RXF 631,> 100 µM (inactive)
same,GI50,SF-268,> 100 µM (inactive)
same,GI50,SF-295,> 100 µM (inactive)
same,GI50,SF-539,> 100 µM (inactive)
same,GI50,SK-MEL-28,> 100 µM (inactive)
same,GI50,SK-MEL-2,> 100 µM (inactive)
same,GI50,SK-MEL-5,> 100 µM (inactive)
same,GI50,SK-OV-3,> 100 µM (inactive)
same,GI50,SN12C,> 100 µM (inactive)
same,GI50,SNB-19,> 100 µM (inactive)
same,GI50,SNB-75,> 100 µM (inactive)
same,GI50,SNB-78,> 100 µM (inactive)
same,GI50,SW-620,> 100 µM (inactive)
same,GI50,TK-10,> 100 µM (inactive)
same,GI50,UACC-257,> 100 µM (inactive)
same,GI50,UACC-62,> 100 µM (inactive)
same,GI50,UO-31,> 100 µM (inactive)
same,GI50,XF498,> 100 µM (inactive)
COc1ccc(C(=O)CC2=Nc3nnc(CCCCCCCc4nnc5n4C(=O)C(CC(=O)c4ccc(OC)cc4)=N5)n3C2=O)cc1,GI50,786-0,> 100 µM (inactive)
same,GI50,A498,> 100 µM (inactive)
same,GI50,A549,> 100 µM (inactive)
same,GI50,ACHN,> 100 µM (inactive)
same,GI50,CAKI-1,> 100 µM (inactive)
same,GI50,CCRF-CEM,> 100 µM (inactive)
same,GI50,COLO 205,> 100 µM (inactive)
same,GI50,DLD-1,> 100 µM (inactive)
same,GI50,DMS-114,> 100 µM (inactive)
same,GI50,EKVX,> 100 µM (inactive)
same,GI50,HCC 2998,> 100 µM (inactive)
same,GI50,HCT-116,> 100 µM (inactive)
same,GI50,HCT-15,> 100 µM
same,GI50,HL-60,> 100 µM (inactive)
same,GI50,HOP-18,> 100 µM (inactive)
same,GI50,HOP-62,> 100 µM (inactive)
same,GI50,HOP-92,> 100 µM (inactive)
same,GI50,HT-29,> 100 µM (inactive)
same,GI50,IGROV-1,> 100 µM (inactive)
same,GI50,K562,> 100 µM (inactive)
same,GI50,KM-20L2,> 100 µM (inactive)
same,GI50,KM12,> 100 µM (inactive)
same,GI50,LOX IMVI,> 100 µM (inactive)
same,GI50,LXFL 529,> 100 µM (inactive)
same,GI50,M14,> 100 µM (inactive)
same,GI50,M19-MEL,> 100 µM (inactive)
same,GI50,MOLT-4,> 100 µM (inactive)
same,GI50,Malme-3M,> 100 µM (inactive)
same,GI50,NCI-H226,> 100 µM (inactive)
same,GI50,NCI-H23,> 100 µM (inactive)
same,GI50,NCI-H460,> 100 µM (inactive)
same,GI50,NCI-H522,> 100 µM (inactive)
same,GI50,OVCAR-3,> 100 µM (inactive)
same,GI50,OVCAR-5,> 100 µM (inactive)
same,GI50,OVCAR-8,> 100 µM (inactive)
same,GI50,RPMI-8226,> 100 µM (inactive)
same,GI50,RXF 393,> 100 µM (inactive)
same,GI50,RXF 631,> 100 µM (inactive)
same,GI50,SF-268,> 100 µM (inactive)
same,GI50,SF-295,> 100 µM (inactive)
same,GI50,SF-539,> 100 µM (inactive)
same,GI50,SK-MEL-28,> 100 µM (inactive)
same,GI50,SK-MEL-5,> 100 µM (inactive)
same,GI50,SK-OV-3,> 100 µM (inactive)
same,GI50,SN12C,> 100 µM (inactive)
same,GI50,SNB-19,> 100 µM (inactive)
same,GI50,SNB-75,31.6 µM (inactive)
same,GI50,SR,> 100 µM (inactive)
same,GI50,SW-620,> 100 µM (inactive)
same,GI50,TK-10,> 100 µM (inactive)
same,GI50,U-251,> 100 µM (inactive)
same,GI50,UACC-257,> 100 µM (inactive)
same,GI50,UACC-62,> 100 µM (inactive)
same,GI50,UO-31,> 100 µM (inactive)
same,GI50,XF498,> 100 µM (inactive)
